Ten molecules from ChEMBL document CHEMBL1132035, “Guanidine-substituted imidazoles as inhibitors of nitric oxide synthase” (Bioorg Med Chem Lett, 1999) can be followed below.

Experiment [1] deals with T1, Nitric oxide synthase, inducible (Mus musculus, UniProt P29477).
T1 sequence (P29477 whole entry): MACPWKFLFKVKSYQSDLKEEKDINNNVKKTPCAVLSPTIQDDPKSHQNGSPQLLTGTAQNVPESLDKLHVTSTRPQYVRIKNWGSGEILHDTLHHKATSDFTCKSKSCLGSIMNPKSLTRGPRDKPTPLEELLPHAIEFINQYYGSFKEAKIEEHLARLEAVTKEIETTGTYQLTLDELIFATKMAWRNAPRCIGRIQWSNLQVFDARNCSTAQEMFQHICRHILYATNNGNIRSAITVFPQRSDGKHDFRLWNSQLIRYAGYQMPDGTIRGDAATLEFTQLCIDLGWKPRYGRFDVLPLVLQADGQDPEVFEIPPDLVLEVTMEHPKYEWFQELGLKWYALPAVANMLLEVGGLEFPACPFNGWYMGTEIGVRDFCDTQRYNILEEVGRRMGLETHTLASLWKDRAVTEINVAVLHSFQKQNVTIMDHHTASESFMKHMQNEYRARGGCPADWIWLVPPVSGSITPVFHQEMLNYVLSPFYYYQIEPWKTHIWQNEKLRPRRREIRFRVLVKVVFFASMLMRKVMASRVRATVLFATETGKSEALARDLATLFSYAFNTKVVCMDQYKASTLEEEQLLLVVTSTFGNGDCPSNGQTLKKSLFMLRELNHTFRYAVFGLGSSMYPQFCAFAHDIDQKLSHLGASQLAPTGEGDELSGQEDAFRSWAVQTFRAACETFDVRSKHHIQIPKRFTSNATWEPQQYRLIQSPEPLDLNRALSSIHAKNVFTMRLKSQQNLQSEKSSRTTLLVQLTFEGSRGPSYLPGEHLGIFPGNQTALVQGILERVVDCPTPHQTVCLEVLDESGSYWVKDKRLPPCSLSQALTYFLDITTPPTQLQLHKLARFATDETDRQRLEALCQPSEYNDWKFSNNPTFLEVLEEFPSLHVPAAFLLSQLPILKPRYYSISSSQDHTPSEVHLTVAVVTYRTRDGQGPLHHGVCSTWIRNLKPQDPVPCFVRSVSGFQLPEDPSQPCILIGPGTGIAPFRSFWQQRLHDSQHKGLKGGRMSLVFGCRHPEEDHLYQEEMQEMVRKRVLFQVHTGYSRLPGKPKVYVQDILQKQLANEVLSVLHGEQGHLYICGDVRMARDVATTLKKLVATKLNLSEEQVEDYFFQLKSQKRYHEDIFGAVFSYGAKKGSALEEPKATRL
The experiment can be described thus: Inhibition of purified mouse inducible nitric oxide synthase catalyzed [14C]L-citrulline production at a compound concentration of 1 mM in presence of 50 uM L-arginine.

Experiment [2] deals with T2, Nitric oxide synthase 3 (Bos taurus, UniProt P29473).
T2 sequence (P29473 whole entry): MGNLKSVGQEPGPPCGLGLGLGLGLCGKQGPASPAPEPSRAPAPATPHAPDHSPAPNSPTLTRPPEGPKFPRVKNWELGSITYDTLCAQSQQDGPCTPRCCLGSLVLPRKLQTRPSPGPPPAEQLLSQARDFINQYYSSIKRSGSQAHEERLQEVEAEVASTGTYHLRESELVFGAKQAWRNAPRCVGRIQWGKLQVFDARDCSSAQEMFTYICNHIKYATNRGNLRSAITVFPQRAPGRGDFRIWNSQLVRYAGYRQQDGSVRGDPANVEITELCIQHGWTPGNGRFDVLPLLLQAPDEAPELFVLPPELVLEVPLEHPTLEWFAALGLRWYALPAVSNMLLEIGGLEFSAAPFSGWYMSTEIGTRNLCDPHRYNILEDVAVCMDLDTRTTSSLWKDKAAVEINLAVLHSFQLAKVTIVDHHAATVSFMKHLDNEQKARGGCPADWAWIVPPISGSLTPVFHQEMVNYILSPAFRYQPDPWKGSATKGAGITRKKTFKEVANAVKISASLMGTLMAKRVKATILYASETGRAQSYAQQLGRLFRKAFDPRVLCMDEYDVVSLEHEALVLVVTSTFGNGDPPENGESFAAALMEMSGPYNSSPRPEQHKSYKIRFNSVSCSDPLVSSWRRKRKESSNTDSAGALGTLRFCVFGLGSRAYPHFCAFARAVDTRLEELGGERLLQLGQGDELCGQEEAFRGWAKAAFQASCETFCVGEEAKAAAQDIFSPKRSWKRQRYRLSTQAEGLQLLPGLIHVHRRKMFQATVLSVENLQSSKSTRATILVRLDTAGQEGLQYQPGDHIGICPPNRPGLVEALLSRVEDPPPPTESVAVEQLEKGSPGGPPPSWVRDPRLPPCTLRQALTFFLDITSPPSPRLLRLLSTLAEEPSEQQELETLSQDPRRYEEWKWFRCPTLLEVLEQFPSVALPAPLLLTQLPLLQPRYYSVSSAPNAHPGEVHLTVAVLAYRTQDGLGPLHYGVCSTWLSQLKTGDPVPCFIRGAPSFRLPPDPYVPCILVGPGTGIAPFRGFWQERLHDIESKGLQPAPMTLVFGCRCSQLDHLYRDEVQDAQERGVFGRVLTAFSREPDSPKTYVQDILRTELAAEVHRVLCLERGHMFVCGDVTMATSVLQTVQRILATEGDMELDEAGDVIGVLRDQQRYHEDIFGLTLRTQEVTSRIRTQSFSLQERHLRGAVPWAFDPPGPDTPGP
Kind of experiment: Inhibition of bovine endothelial nitric oxide synthase catalyzed [14C]L-citrulline production at a compound concentration of 1 mM in presence of 50 uM L-arginine.

Experiment [3] has as its target T3, Nitric oxide synthase 1 (Rattus norvegicus, UniProt P29476). Kind of experiment: Inhibition of rat neuronal nitric oxide synthase catalyzed [14C]L-citrulline production at a compound concentration of 1 mM in presence of 50 uM L-arginine.
Experiment [4] deals with T2, Nitric oxide synthase 3. Kind of experiment: Compound was evaluated as nitric oxide producing substrate of bovine Endothelial nitric oxide synthase using the Griess assay; NA means Not active.
Experiment [5] addresses T3, Nitric oxide synthase 1. The experiment can be described thus: Compound was evaluated as nitric oxide producing substrate of rat Neuronal nitric oxide synthase using the Griess assay; NA means Not active.
Experiment [6] addresses T1, Nitric oxide synthase, inducible. The experiment can be described thus: Compound was evaluated as nitric oxide producing substrate of mouse Inducible nitric oxide synthase using the Griess assay; NA means Not active.

Bounds are passed on as bounds.

T3 sequence (P29476 whole entry): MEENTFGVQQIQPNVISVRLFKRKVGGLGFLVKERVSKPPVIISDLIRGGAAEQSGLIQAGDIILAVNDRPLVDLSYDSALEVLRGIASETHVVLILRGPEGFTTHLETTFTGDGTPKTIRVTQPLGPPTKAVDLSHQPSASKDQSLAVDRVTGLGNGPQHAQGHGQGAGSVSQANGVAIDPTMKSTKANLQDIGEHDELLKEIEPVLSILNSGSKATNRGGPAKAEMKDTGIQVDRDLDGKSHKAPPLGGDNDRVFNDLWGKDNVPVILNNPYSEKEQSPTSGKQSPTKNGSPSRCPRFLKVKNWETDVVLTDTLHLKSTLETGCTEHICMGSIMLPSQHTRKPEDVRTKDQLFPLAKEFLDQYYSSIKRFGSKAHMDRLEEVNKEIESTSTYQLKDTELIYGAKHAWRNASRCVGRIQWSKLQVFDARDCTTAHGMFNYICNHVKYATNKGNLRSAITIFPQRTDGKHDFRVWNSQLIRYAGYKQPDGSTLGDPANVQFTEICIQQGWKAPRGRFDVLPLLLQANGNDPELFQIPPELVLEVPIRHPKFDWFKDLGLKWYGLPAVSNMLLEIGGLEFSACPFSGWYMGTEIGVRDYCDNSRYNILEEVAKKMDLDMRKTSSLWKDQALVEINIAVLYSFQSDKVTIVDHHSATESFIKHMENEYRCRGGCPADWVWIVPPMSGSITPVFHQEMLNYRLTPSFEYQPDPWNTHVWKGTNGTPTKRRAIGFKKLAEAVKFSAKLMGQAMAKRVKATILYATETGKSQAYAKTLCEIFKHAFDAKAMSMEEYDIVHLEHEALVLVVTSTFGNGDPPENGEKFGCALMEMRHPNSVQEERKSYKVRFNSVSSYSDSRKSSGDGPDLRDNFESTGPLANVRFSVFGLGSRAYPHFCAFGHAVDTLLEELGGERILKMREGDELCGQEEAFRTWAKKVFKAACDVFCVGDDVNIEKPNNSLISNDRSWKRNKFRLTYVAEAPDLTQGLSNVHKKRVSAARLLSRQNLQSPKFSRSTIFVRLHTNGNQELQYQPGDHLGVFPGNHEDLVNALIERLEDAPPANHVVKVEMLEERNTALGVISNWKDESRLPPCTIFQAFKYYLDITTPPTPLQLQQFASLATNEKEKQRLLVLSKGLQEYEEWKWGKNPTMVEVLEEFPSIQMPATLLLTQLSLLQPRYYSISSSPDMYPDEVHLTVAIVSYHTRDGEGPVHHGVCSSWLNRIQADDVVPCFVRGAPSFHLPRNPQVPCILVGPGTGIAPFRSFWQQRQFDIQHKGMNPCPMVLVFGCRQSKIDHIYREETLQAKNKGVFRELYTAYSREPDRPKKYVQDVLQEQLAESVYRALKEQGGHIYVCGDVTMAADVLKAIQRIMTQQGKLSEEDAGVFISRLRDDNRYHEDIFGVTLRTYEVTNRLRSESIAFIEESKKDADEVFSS

For `N=C(N)NCc1ncc[nH]1`, the IC50 in experiment [1] stood at 138 µM.
In the case of `N/C(=N\CCC[C@@H](N)C(=O)O)NCCc1ncc[nH]1`, the results for the IC50 at Nitric oxide synthase 3 [2] and on Nitric oxide synthase 1 [3] were 629 µM and 1490 µM, respectively.
`N=C(N)NCCc1ncc[nH]1`: the NO-producing substrate activity result at Nitric oxide synthase 3 [4] is on record as “Not Active”. The “NO production as substrate” value (on Nitric oxide synthase 1 [5]; in experiment [6]) was “Not Active” throughout.
Take `N/C(=N\CCC[C@H](N)C(=O)O)NCc1c[nH]cn1`: the NO-producing substrate activity entry at Nitric oxide synthase 3 [4] was “Not Active”. The “NO production as substrate” value (on Nitric oxide synthase 1 [5]; in experiment [6]) was “Not Active” in each case.
For the molecule `c1c[nH]cn1` [IMIDAZOLE], the concentration for half-maximal inhibition (IC50) in experiment [1] amounted to 40 µM.
On the same count and under the same terms, the same measure for `c1ccc(-c2ncc[nH]2)cc1` [2-PHENYLIMIDAZOLE]: over 1000 µM.
As for `N=C(N)NCc1c[nH]cn1`, the NO-producing substrate activity entry on Nitric oxide synthase 3 [4] is “Not Active”. Further, the “NO production as substrate” value (on Nitric oxide synthase 1 [5]; in experiment [6]) was “Not Active” throughout.
For `N/C(=N\CCC[C@@H](N)C(=O)O)NCc1ncc[nH]1`, the results for the IC50 on Nitric oxide synthase 3 [2] and on Nitric oxide synthase 1 [3] were 347 µM and 1590 µM, respectively.
For the molecule `N/C(=N\CCC[C@@H](N)C(=O)O)NCCc1c[nH]cn1`, the IC50 on Nitric oxide synthase 3 [2] stood at 1090 µM.
As to `N=C(N)NCCc1c[nH]cn1`, at Nitric oxide synthase 3 [4], the NO-producing substrate activity result is on record as “Not Active”. For the same molecule, the “NO production as substrate” value (at Nitric oxide synthase 1 [5]; in experiment [6]) was “Not Active” throughout.
